Assay results published in patent US11970497B2, “Tricyclic AKR1C3 dependent KARS inhibitors” (Novartis AG, priority 2019, dated 2024).

What was measured:
[1] = system: H460 (NRF2 pathway mutant cell line with high AKR1C3 expression); assay: In vitro cell proliferation assay (CellTiter-Glo), H460; format: cell-based; conditions: Homo sapiens, NCI-H460, 72 h; H460 cells, 3 days, CellTiter-Glo, top concentration 10 μM; read-out: H460 Qualified absolute AC50
Method in brief: (§1)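 Cells seeded day 1 (H460 800/well, Hara 2000/well) in RPMI-1640 with 10% FBS; compounds added day 2 as 8-point 1:5 dilutions from 10 μM top. After 3 days at 37 °C, viability read by CellTiter-Glo luminescence, normalized to DMSO and MG132 (30 μM) controls to derive percentage activity and AC50.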

[2] = system: Hara (NRF2 pathway wild type cell line with low AKR1C3 expression); assay: In vitro cell proliferation assay (CellTiter-Glo), Hara; format: cell-based; conditions: 72 h; Hara cells, 3 days, CellTiter-Glo, top concentration 10 μM; read-out: HARA Qualified absolute AC50
Method in brief: as §1

Human KARS = biological target: T1, Human KARS (Homo sapiens, UniProt Q15046); assay: KARS AMP Transcreener FP assay; format: biochemical; conditions: 50 nM human KARS, 20 μM ATP, 50 μM L-Lysine, 1 μM tRNA, 2 h at RT; read-out: Human KARS Transcreener AMP assay Qualified absolute AC50
T1 construct: Human KARS protein (residues 70-584) was expressed and purified; made in house
T1 sequence (Q15046 70-584): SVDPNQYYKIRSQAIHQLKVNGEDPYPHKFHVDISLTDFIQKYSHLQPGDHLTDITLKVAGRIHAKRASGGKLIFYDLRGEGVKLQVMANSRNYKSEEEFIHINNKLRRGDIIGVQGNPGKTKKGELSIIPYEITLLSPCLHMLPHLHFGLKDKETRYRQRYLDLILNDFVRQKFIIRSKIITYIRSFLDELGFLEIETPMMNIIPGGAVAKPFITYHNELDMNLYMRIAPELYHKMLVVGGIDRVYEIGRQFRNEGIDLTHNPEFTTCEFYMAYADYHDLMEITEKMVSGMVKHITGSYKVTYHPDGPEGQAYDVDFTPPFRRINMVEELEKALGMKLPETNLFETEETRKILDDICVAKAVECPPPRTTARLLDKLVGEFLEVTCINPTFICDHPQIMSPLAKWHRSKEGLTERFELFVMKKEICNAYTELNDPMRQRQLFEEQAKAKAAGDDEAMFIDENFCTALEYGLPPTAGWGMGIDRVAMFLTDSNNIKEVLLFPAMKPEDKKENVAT
Source text: KARS AMP Transcreener FP Assay to Measure Inhibition of KARS Enzymatic Activity
Lysine-tRNA synthetase (KARS) is an enzyme that catalyzes the reaction of ATP, L-lysine, and tRNA(Lys) to form AMP, diphosphate, and L-lysyl-tRNA(Lys).
The Transceener® AMP/GMP (BellBrook Labs, Madison, WI, USA) is a far red, competitive fluorescence polarization (FP) immunoassay based on the detection of AMP, which is one of the products of aminoacylation of tRNA. In this assay, a fluorescently labeled AMP (AMP Alexa Fluor 633) is used as the tracer that can be recognized by a specific antibody. In the absence of AMP, all the tracer molecules are bound to the antibodies leading to large polarization. The AMP product generated by the enzyme reaction will compete with the tracer for binding to the antibody which leads to a decrease in the polarization. As such, the enzyme activity is inversely proportional to FP values.
Human KARS protein (residues 70-584) was expressed and purified using a similar protocol to what is described in literature (Crystal structure of tetrameric form of human lysyl-tRNA synthetase: Implications for multisynthetase complex formation Guo, M., Ignatov, M., Musier-Forsyth, K., Schimmel, P., Yang, X. L. (2008) Proc. Natl. Acad. Sci. Usa 105: 2331-2336).
The KARS enzyme assay was performed in a final volume of 10 μL per well of Corning Costar 384 well plate, flat bottom, black non-treated plate. The final assay concentration was 20 mM HEPES pH 7.5, 1 mM DTT, 50 nM human KARS, 20 μM ATP, 50 μM L-Lysine, 1 μM tRNA and 8 mM MgCl2. Compounds were serial diluted 1:3 in DMSO in a master plate to generate a 10 concentration points dose response with maximum concentration of 10 mM. 50 nL from compound master plate were spotted in each well of a 384 black plate (Corning 3573), and 5 μL of enzyme mixture containing 100 nM KARS diluted in assay buffer (20 mM HEPES pH 7.5 and 1 mM OTT) were added. The reaction was started by adding 5 μL of the substrate mixture containing 40 μM ATP (final 20 μM ATP), 100 μM L-Lysine (final 50 μM), 2 μM tRNA (final 1 μM), 16 mM MgCl2 (final 8 mM MgCl2) diluted in assay buffer (20 mM HEPES pH 7.5 and 1 mM OTT). The mixtures were mixed and incubated for 2 h at RT before the termination of the reaction.
Transcreener® stop and detection buffers were prepared (1× stop buffer [final: 0.5×], 2 nM Tracer [final: 1 nM] and 5 μg/ml anti-AMP antibody [final: 2.5 μg/ml] in deionized water) and 10 μL of the stop and detection mix were added to the reaction wells, mixed for a minute and centrifuged at 1000 rpm for 10 seconds. The plates were read after incubating at RT for 30-60 min using Infinite® M1000 with the following settings: Excitation wavelength: 635 nm; Emission wavelength: 680 nm. FP values of DMSO controls were used to normalize the data and calculate IC50s of compounds using the Helios Software suite.

| Compound | AC50 (Human KARS) | AC50 [1] | AC50 [2] |
| --- | --- | --- | --- |
| CS(=O)(=O)Nc1cc(CNC(=O)N2CCC3(CC2)CC(O)c2cc(F)ccc2N3)ccc1F (racemic) [Example 164, 6′-fluoro-N-(4-fluoro-3-(methylsulfonamido)benzyl)-4′-hydroxy-3′,4′-dihydro-1′H-spiro[piperidine-4,2′-quinoline]-1-carboxamide] | 106 nM | 253 nM | 234 nM |
| CN1c2ccc(F)cc2C(O)CC12CCN(C(=O)NCc1ccc(F)c([C@@H](N)C(F)(F)F)c1)CC2 (mixture of isomers) [Example 167, N-(3-((R)-1-amino-2,2,2-trifluoroethyl)-4-fluorobenzyl)-6′-fluoro-4′-hydroxy-1′-methyl-3′,4′-dihydro-1′H-spiro[piperidine-4,2′-quinoline]-1-carboxamide] | 918 nM | 345 nM | 100 nM |
| CN1c2ccc(F)cc2[C@H](O)CC12CCN(C(=O)NCc1ccc(F)cc1)CC2 (single isomer, unassigned) [Example 151a] | 9.1 nM | 24 nM | 20 nM |
| CN1c2ccc(F)cc2C(O)CC12CCN(C(=O)NCc1ccc(F)c(NCCO)c1)CC2 (stereo not drawn) [Example 165, 6′-fluoro-N-(4-fluoro-3-((2-hydroxyethyl)amino)benzyl)-4′-hydroxy-1′-methyl-3′,4′-dihydro-1′H-spiro[piperidine-4,2′-quinoline]-1-carboxamide] | 199 nM | 49 nM | 23 nM |

Continued, in another order:

| AC50 (Human KARS) | Compound | AC50 [1] | AC50 [2] |
| --- | --- | --- | --- |
| 243 nM | COCCNc1cc(F)ccc1CNC(=O)N1CCC2(CC1)CC(O)c1cc(F)ccc1N2C (racemic) [Example 166, 6′-fluoro-N-(4-fluoro-2-((2-methoxyethyl)amino)benzyl)-4′-hydroxy-1′-methyl-3′,4′-dihydro-1′H-spiro[piperidine-4,2′-quinoline]-1-carboxamide] | 3 nM | 22 nM |
| 9.1 nM | O=C(NCc1ccc(F)cc1)N1CCC2(CC1)C[C@@H](O)c1cc(F)ccc1N2 (single isomer, unassigned) [Example 152] | 21 nM | 16 nM |
| > 10000 nM | O=C(NCc1ccc(F)cc1)N1CCC2(CC1)C[C@H](O)c1cc(F)ccc1N2 (single isomer, unassigned) [Example 153] | 2260 nM | 2500 nM |
| 11.7 nM | O=C(NCc1ccc(F)cc1O)N1CCC2(CC1)C[C@@H](O)c1cc(F)ccc1N2 (single isomer, unassigned) [Example 154a] | 5 nM | 5 nM |
| > 10000 nM | CN1c2ccc(F)cc2C(=O)CC12CCN(C(=O)NCc1ccc(F)cc1)CC2 [Example 9, 6′-fluoro-N-(4-fluorobenzyl)-1′-methyl-4′-oxo-3′,4′-dihydro-1′H-spiro[piperidine-4,2′-quinoline]-1-carboxamide] | 17 nM | > 10000 nM |
